In patent publication US20240092758A1, “IMIDAZOLO INDAZOLE COMPOUNDS AS JAK INHIBITORS” (Theravance Biopharma R&D IP, LLC, priority 2021, published 2024):

Columns and labels:
JAK2 = JAK2 (Homo sapiens (Human), UniProt O60674); assay: Biochemical JAK kinase assay (LanthaScreen), JAK2; conditions: for Ki: read-out: JAK2 pKi (converted)
In short: (§1)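 LanthaScreen format: phospho-STAT1 (pTyr701) detected with 2 nM Tb antibody after 10 mM EDTA quench. Kinase step used Km-level ATP and 200 nM STAT1 peptide, 1 h at ambient after 1 h pre-incubation. Inhibition fitted to IC50, reported as pKi.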

[1] = system: IL-13 induced STAT6 phosphorylation in BEAS-2B human lung epithelial cells; assay: Cellular JAKI potency assay (BEAS-2B); format: cell-based; conditions: Homo sapiens, BEAS-2B, BEAS-2B cells, read-out: BEAS2B pIC50 (converted)
In short: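 AlphaLISA SureFire detection of Tyr641 pSTAT6 in lysates gave IC50s (4-parameter fit, expressed as pIC50). Cells: human BEAS-2B, exposed 1 h at 37 °C to compound dose series at 0.1% DMSO, then 30 min to IL-13 added at 80 ng/mL in HEPES-buffered HBSS with BSA.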

TYK2 = TYK2 (Homo sapiens (Human), UniProt P29597); assay: Biochemical JAK kinase assay (LanthaScreen), Tyk2; conditions: read-out: Tyk2 pKi (converted)
In short: as §1

JAK3 = JAK3 (Homo sapiens (Human), UniProt P52333); assay: Biochemical JAK kinase assay (LanthaScreen), JAK3; conditions: read-out: JAK3 pKi (converted)
In short: as §1

[2] = Pharmacokinetics in plasma and lung in mouse after oral aspiration administration; format: in vivo; conditions: male CD1 mice; for Lung Tissue AUC(0-24) / AUC(0-t): 0.2 mg/mL, two 25 μL increments; for Lung Tissue:Plasma AUC ratio: lung AUC to plasma AUC; for AUC(0-t): mouse, inhaled or intranasal, 0.01 mg/mouse, plasma, read-out: Plasma AUC(0-24)
Procedure: Plasma and lung concentrations of test compounds were quantified and pharmacokinetic parameters were calculated in the following manner. Male CD1 mice from Charles River Laboratories were used in the pharmacokinetic studies. Test compounds were individually formulated in 20% propylene glycol in pH 4 citrate buffer at a concentration of 0.2 mg/mL. Test compounds were administered in two, 25 μL increments introduced into the trachea of each mouse by oral aspiration using a calibrated pipette once the animal was anesthetized using isoflurane. Blood samples were collected as terminal collections via cardiac puncture at 0.167, 1, 4, 8, and 24 hr post-dosing. Following […] with CO2, a direct cardiac puncture was performed while avoiding puncturing the lung and blood was immediately transferred into K2EDTA tubes and placed on wet ice. Blood samples were centrifuged (Eppendorf centrifuge, 5804R) for 4 minutes at approximately 12,000 rpm at 4° C. to collect plasma. Intact lungs were also excised from these mice using the same timepoints (0.167, 1, 4, 8, and 24 hr). Lungs were washed with sterile water to remove any blood residue and were patted dry, weighed, and homogenized in 0.1% formic acid in water at a dilution of 1:3 (lung:water, weight/volume). Plasma and lung concentrations of test compounds were determined by LC-MS/MS analysis against analytical standards constructed into a standard curve in the test matrix. The pharmacokinetic parameters of test compounds were determined by non-compartmental analysis. For concentrations below the limit of quantification, zero was used for mean calculations. Mean values were not reported if more than 50% of the samples were below the limit of quantification at a timepoint, or if more than 50% of a calculated pharmacokinetic parameter was not reportable. The area under the concentration-time curve extrapolated to infinity (AUC(0-inf)) was calculated as follows: AUC(0-inf)=AUC(0-t)+Clast/k, where AUC(0-t) is the area under the concentration-time curve from the time of dosing to the last measurable concentration calculated by the linear trapezoidal rule, Clast is the last measurable concentration, and k is the first order rate constant associated with the terminal elimination phase, estimated by linear regression of time versus log concentration. The lung-to-plasma AUC ratio was determined as the ratio of the lung AUC(0-inf) in μg*hr/g to the plasma AUC(0-inf) in μg*hr/mL.

JAK1 = JAK1 (Homo sapiens (Human), UniProt P23458); assay: Biochemical JAK kinase assay (LanthaScreen), JAK1; conditions: for Ki: read-out: JAK1 pKi (converted)
In short: as §1

Sequence of TYK2 (P29597 whole entry): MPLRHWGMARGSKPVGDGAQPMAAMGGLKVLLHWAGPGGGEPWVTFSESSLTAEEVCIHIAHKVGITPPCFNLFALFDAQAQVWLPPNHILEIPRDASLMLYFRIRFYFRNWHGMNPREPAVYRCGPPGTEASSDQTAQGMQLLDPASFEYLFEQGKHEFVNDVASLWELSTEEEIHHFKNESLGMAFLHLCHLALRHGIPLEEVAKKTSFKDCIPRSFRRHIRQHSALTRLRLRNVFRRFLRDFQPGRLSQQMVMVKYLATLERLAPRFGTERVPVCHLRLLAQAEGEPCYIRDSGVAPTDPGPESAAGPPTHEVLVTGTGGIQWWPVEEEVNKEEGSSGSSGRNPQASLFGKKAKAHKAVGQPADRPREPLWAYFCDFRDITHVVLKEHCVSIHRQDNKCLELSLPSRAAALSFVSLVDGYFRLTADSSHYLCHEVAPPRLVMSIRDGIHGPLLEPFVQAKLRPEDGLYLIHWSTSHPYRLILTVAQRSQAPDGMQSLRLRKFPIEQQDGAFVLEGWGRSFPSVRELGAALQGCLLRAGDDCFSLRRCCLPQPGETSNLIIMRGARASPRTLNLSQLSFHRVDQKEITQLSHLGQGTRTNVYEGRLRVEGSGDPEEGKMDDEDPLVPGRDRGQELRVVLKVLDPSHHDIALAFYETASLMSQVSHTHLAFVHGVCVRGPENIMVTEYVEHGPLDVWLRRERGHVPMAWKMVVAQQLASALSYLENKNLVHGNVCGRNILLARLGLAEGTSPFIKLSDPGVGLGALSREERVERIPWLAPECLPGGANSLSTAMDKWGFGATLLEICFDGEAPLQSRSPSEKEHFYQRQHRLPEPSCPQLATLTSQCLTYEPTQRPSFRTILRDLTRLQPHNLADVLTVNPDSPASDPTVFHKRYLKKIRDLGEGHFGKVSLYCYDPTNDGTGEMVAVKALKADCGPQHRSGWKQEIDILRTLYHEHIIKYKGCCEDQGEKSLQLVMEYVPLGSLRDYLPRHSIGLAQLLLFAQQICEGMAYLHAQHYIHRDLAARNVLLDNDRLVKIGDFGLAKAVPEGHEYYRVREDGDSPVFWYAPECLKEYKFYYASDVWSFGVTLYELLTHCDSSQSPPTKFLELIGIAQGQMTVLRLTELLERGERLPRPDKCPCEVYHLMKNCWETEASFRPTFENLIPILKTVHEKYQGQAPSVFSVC
Sequence of JAK3 (P52333 whole entry): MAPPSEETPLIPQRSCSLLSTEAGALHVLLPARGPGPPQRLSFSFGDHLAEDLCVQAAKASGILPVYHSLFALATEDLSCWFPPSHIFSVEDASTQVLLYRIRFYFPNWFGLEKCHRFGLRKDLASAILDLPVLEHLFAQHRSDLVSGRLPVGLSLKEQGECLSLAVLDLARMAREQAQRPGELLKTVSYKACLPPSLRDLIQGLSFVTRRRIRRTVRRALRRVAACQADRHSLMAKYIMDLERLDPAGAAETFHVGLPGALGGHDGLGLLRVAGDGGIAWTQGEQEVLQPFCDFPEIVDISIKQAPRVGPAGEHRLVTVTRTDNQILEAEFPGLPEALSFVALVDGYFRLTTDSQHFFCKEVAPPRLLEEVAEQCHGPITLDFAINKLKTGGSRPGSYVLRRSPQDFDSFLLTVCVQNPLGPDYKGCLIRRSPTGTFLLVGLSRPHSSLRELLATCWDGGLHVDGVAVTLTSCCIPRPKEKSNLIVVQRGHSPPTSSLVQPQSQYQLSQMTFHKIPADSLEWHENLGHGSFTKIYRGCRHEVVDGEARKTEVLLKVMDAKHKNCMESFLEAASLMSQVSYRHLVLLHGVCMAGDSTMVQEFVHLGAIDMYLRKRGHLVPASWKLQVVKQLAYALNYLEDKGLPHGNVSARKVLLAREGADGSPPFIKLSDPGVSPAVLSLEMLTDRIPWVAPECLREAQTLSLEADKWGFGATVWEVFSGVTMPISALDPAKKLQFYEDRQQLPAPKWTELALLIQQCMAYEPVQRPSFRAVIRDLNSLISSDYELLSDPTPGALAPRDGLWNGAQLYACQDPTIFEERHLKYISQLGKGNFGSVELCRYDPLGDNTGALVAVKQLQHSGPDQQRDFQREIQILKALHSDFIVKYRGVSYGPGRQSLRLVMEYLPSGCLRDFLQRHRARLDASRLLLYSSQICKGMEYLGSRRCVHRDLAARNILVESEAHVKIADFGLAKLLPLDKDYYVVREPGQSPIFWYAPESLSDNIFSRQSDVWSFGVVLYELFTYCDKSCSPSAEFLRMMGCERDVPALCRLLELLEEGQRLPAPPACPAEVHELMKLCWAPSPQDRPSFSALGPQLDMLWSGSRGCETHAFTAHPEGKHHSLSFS
Sequence of JAK2 (O60674 whole entry): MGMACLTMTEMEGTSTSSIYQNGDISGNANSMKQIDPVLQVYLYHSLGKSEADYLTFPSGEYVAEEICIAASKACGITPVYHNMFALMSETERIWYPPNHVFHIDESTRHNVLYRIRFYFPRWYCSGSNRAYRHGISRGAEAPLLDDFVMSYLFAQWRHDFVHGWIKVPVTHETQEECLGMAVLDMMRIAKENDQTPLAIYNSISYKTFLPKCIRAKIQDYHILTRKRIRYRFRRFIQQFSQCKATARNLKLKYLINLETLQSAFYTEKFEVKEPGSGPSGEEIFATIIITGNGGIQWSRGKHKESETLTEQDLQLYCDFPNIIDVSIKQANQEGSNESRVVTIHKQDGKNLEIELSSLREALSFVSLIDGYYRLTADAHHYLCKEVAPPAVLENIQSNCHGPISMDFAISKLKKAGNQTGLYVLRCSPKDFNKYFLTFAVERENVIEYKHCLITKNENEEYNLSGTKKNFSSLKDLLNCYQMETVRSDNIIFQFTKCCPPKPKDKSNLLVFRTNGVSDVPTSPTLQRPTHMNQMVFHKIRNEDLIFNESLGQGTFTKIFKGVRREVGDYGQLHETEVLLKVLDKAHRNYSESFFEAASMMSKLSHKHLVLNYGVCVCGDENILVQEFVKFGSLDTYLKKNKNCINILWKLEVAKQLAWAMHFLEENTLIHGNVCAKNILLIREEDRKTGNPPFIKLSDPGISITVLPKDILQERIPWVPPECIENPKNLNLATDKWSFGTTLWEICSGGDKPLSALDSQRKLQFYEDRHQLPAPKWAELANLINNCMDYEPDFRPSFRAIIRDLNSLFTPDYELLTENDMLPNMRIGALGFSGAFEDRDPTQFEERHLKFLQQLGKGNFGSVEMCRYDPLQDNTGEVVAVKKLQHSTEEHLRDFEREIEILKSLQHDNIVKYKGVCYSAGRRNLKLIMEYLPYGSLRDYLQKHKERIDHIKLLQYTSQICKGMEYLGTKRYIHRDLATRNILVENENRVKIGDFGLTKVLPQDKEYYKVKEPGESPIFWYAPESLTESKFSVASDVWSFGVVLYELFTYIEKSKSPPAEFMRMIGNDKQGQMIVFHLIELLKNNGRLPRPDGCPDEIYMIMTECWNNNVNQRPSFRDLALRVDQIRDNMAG
Sequence of JAK1 (P23458 whole entry): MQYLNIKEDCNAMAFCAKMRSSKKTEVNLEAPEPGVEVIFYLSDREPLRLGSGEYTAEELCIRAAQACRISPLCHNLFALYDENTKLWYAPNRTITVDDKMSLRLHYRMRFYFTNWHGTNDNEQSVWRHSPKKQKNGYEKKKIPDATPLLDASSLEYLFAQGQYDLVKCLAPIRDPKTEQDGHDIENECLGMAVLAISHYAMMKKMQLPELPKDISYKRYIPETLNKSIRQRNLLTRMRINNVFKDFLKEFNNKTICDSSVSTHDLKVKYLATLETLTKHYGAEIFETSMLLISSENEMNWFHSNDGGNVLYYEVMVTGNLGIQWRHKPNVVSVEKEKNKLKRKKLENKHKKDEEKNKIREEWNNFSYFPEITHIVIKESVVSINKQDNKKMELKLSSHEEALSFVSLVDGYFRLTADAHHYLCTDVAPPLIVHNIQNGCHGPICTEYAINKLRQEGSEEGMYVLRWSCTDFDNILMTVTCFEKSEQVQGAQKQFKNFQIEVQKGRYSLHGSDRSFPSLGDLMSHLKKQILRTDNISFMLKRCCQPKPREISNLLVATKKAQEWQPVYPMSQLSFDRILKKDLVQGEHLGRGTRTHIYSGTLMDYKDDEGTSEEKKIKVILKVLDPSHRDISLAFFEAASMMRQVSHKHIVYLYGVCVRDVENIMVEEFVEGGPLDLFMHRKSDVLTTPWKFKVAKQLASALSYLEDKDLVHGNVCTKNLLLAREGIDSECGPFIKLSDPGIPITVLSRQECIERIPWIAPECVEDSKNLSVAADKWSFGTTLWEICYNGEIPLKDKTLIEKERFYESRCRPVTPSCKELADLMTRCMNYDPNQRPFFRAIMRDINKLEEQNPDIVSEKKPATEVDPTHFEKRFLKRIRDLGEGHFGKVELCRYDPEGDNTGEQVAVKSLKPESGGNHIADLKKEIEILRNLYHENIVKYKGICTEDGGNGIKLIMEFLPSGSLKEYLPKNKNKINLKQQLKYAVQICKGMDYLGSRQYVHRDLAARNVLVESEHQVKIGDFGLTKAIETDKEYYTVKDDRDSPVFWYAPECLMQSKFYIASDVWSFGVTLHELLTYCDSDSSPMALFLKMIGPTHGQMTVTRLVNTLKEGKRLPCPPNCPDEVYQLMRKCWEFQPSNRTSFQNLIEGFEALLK

Q: Which “JAK2 pKi” value (JAK2) does the source give for `CCc1cc(O)ccc1-c1ccc2c(-c3nc(C4=CCN(C5CN(C)C5)CC4)c[nH]3)n[nH]c2c1` [Compound 15, 3-ethyl-4-(3-(4-(1-(1-methylazetidin-3-yl)-1,2,3,6-tetrahydropyridin-4-yl)-1H-imidazol-2-yl)-1H-indazol-6-yl)phenol] here?
A: A (A represents a pKi value ≥10 (Ki≤0.1 nM))

Q: What about the IC50 [1] of the same molecule?
A: 10 to 31.6 nM

Q: What about the Ki (TYK2) of the same molecule?
A: 1 to 10 nM

Q: And the Ki (JAK3)?
A: 0.1 to 1 nM

Q: What about the “Lung Tissue AUC(0-24)” value [2] of the same molecule?
A: B (B denotes a value between 50 and 100)

Q: What about the “Lung Tissue:Plasma AUC ratio” value [2] of the same molecule?
A: C (C denotes a ratio between 100 and 200)

Q: What about the AUC(0-t) [2] of the same molecule?
A: < 500 ng·h/mL

Q: And the Ki (JAK1)?
A: 0.1 to 1 nM

Q: For `CCc1cc(O)ccc1-c1ccc2c(-c3nc(C4=CCN(C[C@@H]5COCCN5)CC4)c[nH]3)n[nH]c2c1` [Compound 17, (R)-3-ethyl-4-(3-(4-(1-(morpholin-3-ylmethyl)-1,2,3,6-tetrahydropyridin-4-yl)-1H-imidazol-2-yl)-1H-indazol-6-yl)phenol], which Ki (JAK2) is on record?
A: 0.1 to 1 nM

Q: And the IC50 [1]?
A: 3.16 to 10 nM

Q: What about the Ki (TYK2) of the same molecule?
A: 1 to 10 nM

Q: And the Ki (JAK3)?
A: 0.1 to 1 nM

Q: And the “Lung Tissue AUC(0-24)” value [2]?
A: B (B denotes a value between 50 and 100)

Q: And the “Lung Tissue:Plasma AUC ratio” value [2]?
A: C (C denotes a ratio between 100 and 200)

Q: And the AUC(0-t) [2]?
A: 500 to 1000 ng·h/mL

Q: And the Ki (JAK1)?
A: 0.1 to 1 nM

Q: What does the source list for `CCc1cc(O)ccc1-c1ccc2c(-c3nc(C4=CCN(C)CC4)c[nH]3)n[nH]c2c1F` [Example 21]?
A: JAK2 pKi (JAK2): A (A represents a pKi value ≥10 (Ki≤0.1 nM)); IC50 [1]: 3.16 to 10 nM; Ki (TYK2): 0.1 to 1 nM; Ki (JAK3): 0.1 to 1 nM; Lung Tissue AUC(0-24) [2]: C (C denotes a value between 9 and 50); Lung Tissue:Plasma AUC ratio [2]: D (D denotes a ratio between 50 and 100); AUC(0-t) [2]: < 500 ng·h/mL; JAK1 pKi (JAK1): A (A represents a pKi value ≥10 (Ki≤0.1 nM))

Q: Which “JAK2 pKi” value (JAK2) does the source give for `CCc1cc(O)ccc1-c1ccc2c(-c3nc(C4=CCN(C(C)C)CC4)c[nH]3)n[nH]c2c1F` [Example 22] here?
A: A (A represents a pKi value ≥10 (Ki≤0.1 nM))

Q: What about the IC50 [1] of the same molecule?
A: 3.16 to 10 nM

Q: And the Ki (TYK2)?
A: 1 to 10 nM

Q: And the Ki (JAK3)?
A: 0.1 to 1 nM

Q: What about the “Lung Tissue AUC(0-24)” value [2] of the same molecule?
A: C (C denotes a value between 9 and 50)

Q: What about the “Lung Tissue:Plasma AUC ratio” value [2] of the same molecule?
A: D (D denotes a ratio between 50 and 100)

Q: What about the AUC(0-t) [2] of the same molecule?
A: < 500 ng·h/mL

Q: And the Ki (JAK1)?
A: 0.1 to 1 nM

Q: Which Ki (JAK2) does the source give for `CCc1cc(O)ccc1-c1ccc2c(-c3nc(C4=CCN(C5CCC5)CC4)c[nH]3)n[nH]c2c1F` [Example 26] here?
A: 0.1 to 1 nM

Q: And the IC50 [1]?
A: 10 to 31.6 nM

Q: What about the Ki (TYK2) of the same molecule?
A: 1 to 10 nM

Q: What about the Ki (JAK3) of the same molecule?
A: 0.1 to 1 nM

Q: And the “Lung Tissue AUC(0-24)” value [2]?
A: C (C denotes a value between 9 and 50)

Q: And the “Lung Tissue:Plasma AUC ratio” value [2]?
A: E (E denotes a ratio between 30 and 50)

Q: What about the AUC(0-t) [2] of the same molecule?
A: < 500 ng·h/mL

Q: What about the Ki (JAK1) of the same molecule?
A: 0.1 to 1 nM

Q: For `CCc1cc(O)ccc1-c1ccc2c(-c3nc(C4=CCN(C(C)C)C4)c[nH]3)n[nH]c2c1F` [Example 32], which Ki (JAK2) is on record?
A: 0.1 to 1 nM

Q: What about the IC50 [1] of the same molecule?
A: 3.16 to 10 nM

Q: What about the Ki (TYK2) of the same molecule?
A: 1 to 10 nM

Q: What about the Ki (JAK3) of the same molecule?
A: 0.1 to 1 nM

Q: What about the “Lung Tissue AUC(0-24)” value [2] of the same molecule?
A: C (C denotes a value between 9 and 50)

Q: What about the “Lung Tissue:Plasma AUC ratio” value [2] of the same molecule?
A: D (D denotes a ratio between 50 and 100)

Q: What about the AUC(0-t) [2] of the same molecule?
A: < 500 ng·h/mL

Q: What about the Ki (JAK1) of the same molecule?
A: 0.1 to 1 nM

Q: What does the source list for `CCc1cc(O)ccc1-c1ccc2c(-c3nc(C4=CC(CC)NC4)c[nH]3)n[nH]c2c1F` (stereo not shown) [Example 321]?
A: Ki (JAK2): 0.1 to 1 nM; IC50 [1]: 10 to 31.6 nM; Ki (TYK2): 1 to 10 nM; Ki (JAK3): 0.1 to 1 nM; Ki (JAK1): 0.1 to 1 nM

Q: What does the source list for `CCc1cc(O)ccc1-c1ccc2c(-c3nc(C4=CCN(C[C@@H]5CCN5)CC4)c[nH]3)n[nH]c2c1F` [Example 390]?
A: JAK2 pKi (JAK2): A (A represents a pKi value ≥10 (Ki≤0.1 nM)); IC50 [1]: 100 to 316 nM; Ki (TYK2): 1 to 10 nM; Ki (JAK3): 0.1 to 1 nM; Ki (JAK1): 0.1 to 1 nM
